Measured values published in PubChem BioAssay AID1745844 (Carcinogenic Potency Database (CPDB), 2022).
Where “and” joins values, the source holds several entries; their conditions need not be identical. Equal values may be shown once. Calls of active or inactive are those of the source. How the calls were made is not given here.

Tested on: rodent lifetime carcinogenesis bioassay, tumor incidence TD50
Test: chronic cancer bioassays in animals – CPDB, compiled studies (AID 1745844)

In the case of `CC1CN(N=O)C(=O)NC1=O` (centres undefined), the carcinogen call (rat, strain MRC-Wistar, females, in drinking water, site: any site (literature study), lesion: several types, types named in the paper, dosed 52 weeks, study length 127 weeks) was “negative (inactive)”, the TD50 (rat, strain MRC-Wistar, females, in drinking water, site: liver, lesion: several types, types named in the paper, dosed 52 weeks, study length 127 weeks) was 31.2 mg/kg/day and the carcinogen call (rat, strain MRC-Wistar, males, in drinking water, site: any site (literature study), lesion: several types, types named in the paper, dosed 52 weeks, study length 127 weeks) was “negative (inactive)”. The carcinogen call (rat, strain MRC-Wistar, males, in drinking water, site: liver, lesion: one or several types, types not named, dosed 52 weeks, study length 127 weeks) was “negative (inactive)”.
For `C1CCC(C(CC2CCCCN2)C2CCCCC2)CC1` (centres undefined), the carcinogen call (rat, strain Sprague-Dawley, females, in feed, site: liver, lesion: one or several types, types not named, dosed 52 weeks, study length 52 weeks) was “negative (inactive)”, the carcinogen call (rat, strain Sprague-Dawley, females, in feed, site: liver, lesion: one or several types, types not named, dosed 52 weeks, study length 56 weeks) was “negative (inactive)” and the carcinogen call (rat, strain Sprague-Dawley, males, in feed, site: liver, lesion: one or several types, types not named, dosed 52 weeks, study length 52 weeks) was “negative (inactive)”. The carcinogen call (rat, strain Sprague-Dawley, males, in feed, site: liver, lesion: one or several types, types not named, dosed 52 weeks, study length 56 weeks) was “negative (inactive)”.
`CC=CCl` was tested, and the TD50 (mouse, strain Ha/ICR, females, by gavage, site: forestomach, lesion: one or several types, types not named, dosed 89 weeks, study length 89 weeks) was 5.05 mg/kg/day and the TD50 (mouse, strain Ha/ICR, males, by gavage, site: forestomach, lesion: one or several types, types not named, dosed 89 weeks, study length 89 weeks) was 16.7 mg/kg/day.
`CC(F)(Cl)Cl` was tested, and the TD50 (rat, strain Sprague-Dawley, males, inhaled, site: any site (literature study), lesion: several types, types named in the paper, dosed 105 weeks, study length 105 weeks) was 5790 mg/kg/day and the TD50 (rat, strain Sprague-Dawley, males, inhaled, site: testis, lesion: interstitial-cell adenoma, dosed 105 weeks, study length 105 weeks) was 5260 mg/kg/day.
`FC(F)(F)C(Cl)Cl` gave a TD50 (rat, strain Charles River CD (Sprague-Dawley), females, inhaled, site: liver, lesion: cholangiofibroma, dosed 105 weeks, study length 105 weeks) of 22700 mg/kg/day, a TD50 (rat, strain Charles River CD (Sprague-Dawley), females, inhaled, site: liver, lesion: hepatocellular adenoma, dosed 105 weeks, study length 105 weeks) of 20300 mg/kg/day and a TD50 (rat, strain Charles River CD (Sprague-Dawley), females, inhaled, site: pancreas, lesion: acinar-cell adenoma, dosed 105 weeks, study length 105 weeks) of 92100 mg/kg/day. It also gave a TD50 (rat, strain Charles River CD (Sprague-Dawley), males, inhaled, site: liver, lesion: hepatocellular adenoma, dosed 105 weeks, study length 105 weeks) of 13100 mg/kg/day, a TD50 (rat, strain Charles River CD (Sprague-Dawley), males, inhaled, site: pancreas, lesion: acinar-cell adenoma, dosed 105 weeks, study length 105 weeks) of 1260 mg/kg/day and a TD50 (rat, strain Charles River CD (Sprague-Dawley), males, inhaled, site: pancreas, lesion: acinar-cell carcinoma, dosed 105 weeks, study length 105 weeks) of 60800 mg/kg/day. For the same compound, the TD50 (rat, strain Charles River CD (Sprague-Dawley), males, inhaled, site: testis, lesion: interstitial-cell adenoma, dosed 105 weeks, study length 105 weeks) was 9050 mg/kg/day.
`[O]=[Cr][O][Cr]=[O]` was tested, and the carcinogen call (rat, strain BD, both sexes, in feed, site: hypophysis, lesion: adenoma, dosed 85 weeks, study length 187 weeks) was “negative (inactive)”, the carcinogen call (rat, strain BD, both sexes, in feed, site: mammary gland, lesion: carcinoma, dosed 85 weeks, study length 187 weeks) was “negative (inactive)” and the TD50 (rat, strain BD, both sexes, in feed, site: mammary gland, lesion: fibroadenoma, dosed 85 weeks, study length 187 weeks) was 237000 mg/kg/day (inactive).
`OCc1ccco1` was tested, and the carcinogen call (mouse, strain B6C3F1, females, inhaled, site: any site (literature study), lesion: several types, types named in the paper, dosed 104 weeks, study length 104 weeks) was “negative (inactive)”, the TD50 (mouse, strain B6C3F1, females, inhaled, site: lung, lesion: alveolar/bronchiolar adenoma + alveolar/bronchiolar carcinoma, dosed 104 weeks, study length 104 weeks) was 41.8 mg/kg/day and the TD50 (mouse, strain B6C3F1, males, inhaled, site: kidney, lesion: tubule adenoma + tubule carcinoma, dosed 104 weeks, study length 104 weeks) was 263 mg/kg/day and 291 mg/kg/day. For the same compound, the TD50 (mouse, strain B6C3F1, males, inhaled, site: kidney, lesion: tubule adenoma, dosed 104 weeks, study length 104 weeks) was 538 mg/kg/day and 492 mg/kg/day, the TD50 (mouse, strain B6C3F1, males, inhaled, site: kidney, lesion: tubule carcinoma, dosed 104 weeks, study length 104 weeks) was 538 mg/kg/day and 744 mg/kg/day and the TD50 (rat, strain Fischer 344, females, inhaled, site: all sites, lesion: mononuclear-cell leukemia, dosed 105 weeks, study length 105 weeks) was 10.1 mg/kg/day. The TD50 (rat, strain Fischer 344, females, inhaled, site: any site (literature study), lesion: several types, types named in the paper, dosed 105 weeks, study length 105 weeks) was 7.57 mg/kg/day, the TD50 (rat, strain Fischer 344, females, inhaled, site: clitoral gland, lesion: adenoma + adenoma, bilateral + carcinoma + carcinoma, bilateral, dosed 105 weeks, study length 105 weeks) was 27.8 mg/kg/day and the TD50 (rat, strain Fischer 344, females, inhaled, site: clitoral gland, lesion: adenoma + adenoma, bilateral, dosed 105 weeks, study length 105 weeks) was 35.7 mg/kg/day. The TD50 (rat, strain Fischer 344, females, inhaled, site: kidney, lesion: tubule adenoma + tubule carcinoma, dosed 105 weeks, study length 105 weeks) was 110 mg/kg/day and 161 mg/kg/day, the TD50 (rat, strain Fischer 344, females, inhaled, site: kidney, lesion: tubule adenoma, dosed 105 weeks, study length 105 weeks) was 113 mg/kg/day and 108 mg/kg/day and the carcinogen call (rat, strain Fischer 344, females, inhaled, site: nasal cavity, respiratory epithelium, lateral wall, lesion: adenoma, dosed 105 weeks, study length 105 weeks) was “e”. For the same compound, the TD50 (rat, strain Fischer 344, females, inhaled, site: nasal cavity, respiratory epithelium, lesion: adenoma, dosed 105 weeks, study length 105 weeks) was 161 mg/kg/day, the TD50 (rat, strain Fischer 344, males, inhaled, site: Zymbal's gland, lesion: adenoma + carcinoma, dosed 102 weeks, study length 105 weeks) was 17.4 mg/kg/day and the TD50 (rat, strain Fischer 344, males, inhaled, site: any site (literature study), lesion: several types, types named in the paper, dosed 102 weeks, study length 105 weeks) was 1.46 mg/kg/day. For the same compound, the TD50 (rat, strain Fischer 344, males, inhaled, site: nasal cavity, respiratory epithelium, lateral wall + nasal cavity, respiratory epithelium, lesion: adenoma + carcinoma + squamous-cell carcinoma, dosed 102 weeks, study length 105 weeks) was 9.6 mg/kg/day and the TD50 (rat, strain Fischer 344, males, inhaled, site: nasal cavity, respiratory epithelium, lesion: squamous-cell carcinoma, dosed 102 weeks, study length 105 weeks) was 46.4 mg/kg/day.
